Laboratory results taken from patent publication US7973061B2, “Anaplastic lymphoma kinase modulators and methods of use” (Exelixis, Inc., priority 2004, dated 2011).

Target: T1, ALK (baculovirus expressed human ALK kinase domain F1098-K1410) (Homo sapiens, UniProt Q9UM73)
T1 construct: human ALK kinase domain F1098-K1410; made in house
Test: biochemical
Conditions: 1 μM ATP, 4 μM poly-AEKY, 12 nM ALK, 2 hours at ambient temperature; read-out: ALK IC50
In short: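 Baculovirus-expressed human ALK kinase domain (F1098-K1410) was run in a luciferase-coupled chemiluminescent format, with ATP near its KM. After 2 h at ambient temperature, remaining ATP was read by luciferase-luciferin luminescence. IC50 came from 10-point dose-response curves fitted to a four-parameter equation with Hill slope.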

T1 sequence (Q9UM73 1098-1410): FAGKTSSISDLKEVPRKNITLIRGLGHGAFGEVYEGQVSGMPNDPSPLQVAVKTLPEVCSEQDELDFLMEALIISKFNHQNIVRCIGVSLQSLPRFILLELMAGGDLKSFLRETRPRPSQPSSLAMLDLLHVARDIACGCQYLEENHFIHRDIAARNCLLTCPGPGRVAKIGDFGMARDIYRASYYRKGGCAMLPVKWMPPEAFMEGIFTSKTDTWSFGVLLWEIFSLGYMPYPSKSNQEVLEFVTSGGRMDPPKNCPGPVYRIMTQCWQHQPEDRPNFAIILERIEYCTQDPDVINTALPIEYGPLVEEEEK

SMILES | IC50 [nM]
CC1CCCN(C(=O)c2csc(CNC(=O)COc3ccc(OC(F)(F)F)cc3)n2)C1 (centres unmarked) [Entry 289, N-({4-[(3-methylpiperidin-1-yl)carbonyl]-1,3-thiazol-2-yl}methyl)-2-({4-[(trifluoromethyl)oxy]phenyl}oxy)acetamide] | 500 to 2000
O=C(COc1ccc(OC(F)(F)F)cc1)NCc1nc(C(=O)NCc2ccc(F)cc2C(F)(F)F)cs1 [Entry 244, N-{[4-fluoro-2-(trifluoromethyl)phenyl]methyl}-2-({[({4-[(trifluoromethyl)oxy]phenyl}oxy)acetyl]amino}methyl)-1,3-thiazole-4-carboxamide] | 500 to 2000
CC(C)CCC(C)NC(=O)c1csc(CNC(=O)COc2ccc(OC(F)(F)F)cc2)n1 (centres unmarked) [Entry 262, N-(1,4-dimethylpentyl)-2-({[({4-[(trifluoromethyl)oxy]phenyl}oxy)acetyl]amino}methyl)-1,3-thiazole-4-carboxamide] | 500 to 2000
CN1CCCC1CCNC(=O)c1csc(CNC(=O)COc2ccc(OC(F)(F)F)cc2)n1 (centres unmarked) [Entry 247, N-[2-(1-methylpyrrolidin-2-yl)ethyl]-2-({[({4-[(trifluoromethyl)oxy]phenyl}oxy)acetyl]amino}methyl)-1,3-thiazole-4-carboxamide] | 500 to 2000
O=C(COc1ccc(OC(F)(F)F)cc1)NCc1nc(C(=O)N2CC[C@@H]3CCCC[C@@H]3C2)cs1 [Entry 271, N-({4-[(4aS,8aS)-octahydroisoquinolin-2(1H)-ylcarbonyl]-1,3-thiazol-2-yl}methyl)-2-({4-[(trifluoromethyl)oxy]phenyl}oxy)acetamide] | 500 to 2000
O=C(COc1ccc(OC(F)(F)F)cc1)NCc1nc(C(=O)NCc2ccc(F)cc2)co1 [Entry 292, N-[(4-fluorophenyl)methyl]-2-({[({4-[(trifluoromethyl)oxy]phenyl}oxy)acetyl]amino}methyl)-1,3-oxazole-4-carboxamide] | 500 to 2000
C[C@H](NC(=O)c1coc(CNC(=O)COc2ccc(OC(F)(F)F)cc2)n1)C1CCCCC1 [Entry 264, N-[(1S)-1-cyclohexylethyl]-2-({[({4-[(trifluoromethyl)oxy]phenyl}oxy)acetyl]amino}methyl)-1,3-oxazole-4-carboxamide] | 500 to 2000
CCN1CCCC1CNC(=O)c1csc(CNC(=O)COc2ccc(OC(F)(F)F)cc2)n1 (centres unmarked) [Entry 275, N-[(1-ethylpyrrolidin-2-yl)methyl]-2-({[({4-[(trifluoromethyl)oxy]phenyl}oxy)acetyl]amino}methyl)-1,3-thiazole-4-carboxamide] | 500 to 2000
NCc1nc(C(=O)NCCc2ccccc2F)cs1 [Entry 305, 2-(aminomethyl)-N-[2-(2-fluorophenyl)ethyl]-1,3-thiazole-4-carboxamide] | > 2000
COc1ccccc1CNC(=O)c1csc(CNC(=O)COc2ccc(Br)cc2)n1 [Entry 277, 2-[({[(4-bromophenyl)oxy]acetyl}amino)methyl]-N-{[2-(methyloxy)phenyl]methyl}-1,3-thiazole-4-carboxamide] | 500 to 2000
CSCC[C@H](NC(=O)c1ccccc1)C(=O)NCc1nc(C(=O)NCCc2cccc(Cl)c2)cs1 [Entry 221, N-{[4-({[2-(3-chlorophenyl)ethyl]amino}carbonyl)-1,3-thiazol-2-yl]methyl}-N~2~-(phenylcarbonyl)methioninamide] | 500 to 2000
O=C(COc1ccc(OC(F)(F)F)cc1)NCc1nc(C(=O)NCCc2ccccc2Cl)co1 [Entry 273, N-[2-(2-chlorophenyl)ethyl]-2-({[({4-[(trifluoromethyl)oxy]phenyl}oxy)acetyl]amino}methyl)-1,3-oxazole-4-carboxamide] | 500 to 2000
O=C(COc1ccc(OC(F)(F)F)cc1)NCc1nc(C(=O)NCc2ccc(Cl)cc2Cl)cs1 [Entry 64, N-[(2,4-dichlorophenyl)methyl]-2-({[({4-[(trifluoromethyl)oxy]phenyl}oxy)acetyl]amino}methyl)-1,3-thiazole-4-carboxamide] | 50 to 500

The remaining lines, values ahead:

IC50 [nM] | SMILES
50 to 500 | CCOc1ccccc1CNC(=O)c1csc(CNC(=O)COc2ccc(OC(F)(F)F)cc2)n1 [Entry 58, N-{[2-(ethyloxy)phenyl]methyl}-2-({[({4-[(trifluoromethyl)oxy]phenyl}oxy)acetyl]amino}methyl)-1,3-thiazole-4-carboxamide]
50 to 500 | C#CC(CC)(CC)NC(=O)c1csc(CNC(=O)COc2ccc(OC(F)(F)F)cc2)n1 [Entry 147, N-(1,1-diethylprop-2-yn-1-yl)-2-({[({4-[(trifluoromethyl)oxy]phenyl}oxy)acetyl]amino}methyl)-1,3-thiazole-4-carboxamide]
50 to 500 | O=C(COc1ccc(OC(F)(F)F)cc1)NCc1nc(C(=O)NC2CCCCCCC2)cs1 [Entry 76, N-cyclooctyl-2-({[({4-[(trifluoromethyl)oxy]phenyl}oxy)acetyl]amino}methyl)-1,3-thiazole-4-carboxamide]
50 to 500 | O=C(COc1ccc(OC(F)(F)F)cc1)NCc1nc(C(=O)NCc2c(F)cccc2F)cs1 [Entry 115, N-[(2,6-difluorophenyl)methyl]-2-({[({4-[(trifluoromethyl)oxy]phenyl}oxy)acetyl]amino}methyl)-1,3-thiazole-4-carboxamide]
50 to 500 | O=C(COc1ccc(OC(F)(F)F)cc1)NCc1nc(C(=O)NCc2ccccc2OC(F)(F)F)cs1 [Entry 57, N-({2-[(trifluoromethyl)oxy]phenyl}methyl)-2-({[({4-[(trifluoromethyl)oxy]phenyl}oxy)acetyl]amino}methyl)-1,3-thiazole-4-carboxamide]
50 to 500 | CC(C)C[C@@H](NC(=O)c1csc(CNC(=O)COc2ccc(OC(F)(F)F)cc2)n1)C(N)=O [Entry 202, N~2~-{[2-({[({4-[(trifluoromethyl)oxy]phenyl}oxy)acetyl]amino}methyl)-1,3-thiazol-4-yl]carbonyl}-D-leucinamide]
50 to 500 | O=C(COc1ccc(OC(F)(F)F)cc1)NCc1nc(C(=O)NCCC2=CCCCC2)cs1 [Entry 35, N-(2-cyclohex-1-en-1-ylethyl)-2-({[({4-[(trifluoromethyl)oxy]phenyl}oxy)acetyl]amino}methyl)-1,3-thiazole-4-carboxamide]
50 to 500 | O=C(COc1ccc(OC(F)(F)F)cc1)NCc1nc(C(=O)NCCc2ccc(Br)cc2)cs1 [Entry 90, N-[2-(4-bromophenyl)ethyl]-2-({[({4-[(trifluoromethyl)oxy]phenyl}oxy)acetyl]amino}methyl)-1,3-thiazole-4-carboxamide]
< 50 | O=C(COc1ccc(OC(F)(F)F)cc1)NCc1nc(C(=O)NCCc2cccs2)cs1 [Entry 19, N-[2-(2-thienyl)ethyl]-2-({[({4-[(trifluoromethyl)oxy]phenyl}oxy)acetyl]amino}methyl)-1,3-thiazole-4-carboxamide]
50 to 500 | O=C(COc1ccc(OC(F)(F)F)cc1)NCc1nc(C(=O)NCc2cccs2)cs1 [Entry 164, N-(2-thienylmethyl)-2-({[({4-[(trifluoromethyl)oxy]phenyl}oxy)acetyl]amino}methyl)-1,3-thiazole-4-carboxamide]
50 to 500 | CCOc1ccc(CCNC(=O)c2csc(CNC(=O)COc3ccc(OC(F)(F)F)cc3)n2)cc1OC [Entry 43, N-{2-[4-(ethyloxy)-3-(methyloxy)phenyl]ethyl}-2-({[({4-[(trifluoromethyl)oxy]phenyl}oxy)acetyl]amino}methyl)-1,3-thiazole-4-carboxamide]
50 to 500 | Cc1ccc([C@H](C)NC(=O)c2csc(CNC(=O)COc3ccc(OC(F)(F)F)cc3)n2)cc1 [Entry 162, N-[(1S)-1-(4-methylphenyl)ethyl]-2-({[({4-[(trifluoromethyl)oxy]phenyl}oxy)acetyl]amino}methyl)-1,3-thiazole-4-carboxamide]
50 to 500 | CC(NC(=O)c1csc(CNC(=O)COc2ccc(OC(F)(F)F)cc2)n1)c1cccc2ccccc12 (centres unmarked) [Entry 85, N-(1-naphthalen-1-ylethyl)-2-({[({4-[(trifluoromethyl)oxy]phenyl}oxy)acetyl]amino}methyl)-1,3-thiazole-4-carboxamide]
50 to 500 | O=C(COc1ccc(OC(F)(F)F)cc1)NCc1nc(C(=O)NCCc2c[nH]c3ccccc23)cs1 [Entry 45, N-[2-(1H-indol-3-yl)ethyl]-2-({[({4-[(trifluoromethyl)oxy]phenyl}oxy)acetyl]amino}methyl)-1,3-thiazole-4-carboxamide]
50 to 500 | O=C(COc1ccc(OC(F)(F)F)cc1)NCc1nc(C(=O)NCCc2cccc(C(F)(F)F)c2)cs1 [Entry 52, 2-({[({4-[(trifluoromethyl)oxy]phenyl}oxy)acetyl]amino}methyl)-N-{2-[3-(trifluoromethyl)phenyl]ethyl}-1,3-thiazole-4-carboxamide]
50 to 500 | CC(C)CCCCCCNC(=O)c1csc(CNC(=O)COc2ccc(OC(F)(F)F)cc2)n1 [Entry 189, N-(7-methyloctyl)-2-({[({4-[(trifluoromethyl)oxy]phenyl}oxy)acetyl]amino}methyl)-1,3-thiazole-4-carboxamide]
50 to 500 | C[C@@H]1[C@H]2C[C@@H](C[C@H]1NC(=O)c1csc(CNC(=O)COc3ccc(OC(F)(F)F)cc3)n1)C2(C)C [Entry 88, 2-({[({4-[(trifluoromethyl)oxy]phenyl}oxy)acetyl]amino}methyl)-N-[(1R,2R,3R,5S)-2,6,6-trimethylbicyclo[3.1.1]hept-3-yl]-1,3-thiazole-4-carboxamide]
50 to 500 | O=C(NCCc1cccc(Cl)c1)c1csc(CNC(=O)c2cccnc2Oc2ccc(F)cc2)n1 [Entry 141, N-{[4-({[2-(3-chlorophenyl)ethyl]amino}carbonyl)-1,3-thiazol-2-yl]methyl}-2-[(4-fluorophenyl)oxy]pyridine-3-carboxamide]
50 to 500 | CCCCCCN(C)C(=O)c1csc(CNC(=O)COc2ccc(OC(F)(F)F)cc2)n1 [Entry 193, N-hexyl-N-methyl-2-({[({4-[(trifluoromethyl)oxy]phenyl}oxy)acetyl]amino}methyl)-1,3-thiazole-4-carboxamide]
